In ChEMBL document CHEMBL1144549, “Preparation of secolycorines against acetylcholinesterase” (Bioorg Med Chem, 2007):
pIC50: −log10 of the molar value.

molecular target: Acetylcholinesterase (Electrophorus electricus, UniProt O42275); test: Inhibition of eel AChE
Sequence (O42275 whole entry): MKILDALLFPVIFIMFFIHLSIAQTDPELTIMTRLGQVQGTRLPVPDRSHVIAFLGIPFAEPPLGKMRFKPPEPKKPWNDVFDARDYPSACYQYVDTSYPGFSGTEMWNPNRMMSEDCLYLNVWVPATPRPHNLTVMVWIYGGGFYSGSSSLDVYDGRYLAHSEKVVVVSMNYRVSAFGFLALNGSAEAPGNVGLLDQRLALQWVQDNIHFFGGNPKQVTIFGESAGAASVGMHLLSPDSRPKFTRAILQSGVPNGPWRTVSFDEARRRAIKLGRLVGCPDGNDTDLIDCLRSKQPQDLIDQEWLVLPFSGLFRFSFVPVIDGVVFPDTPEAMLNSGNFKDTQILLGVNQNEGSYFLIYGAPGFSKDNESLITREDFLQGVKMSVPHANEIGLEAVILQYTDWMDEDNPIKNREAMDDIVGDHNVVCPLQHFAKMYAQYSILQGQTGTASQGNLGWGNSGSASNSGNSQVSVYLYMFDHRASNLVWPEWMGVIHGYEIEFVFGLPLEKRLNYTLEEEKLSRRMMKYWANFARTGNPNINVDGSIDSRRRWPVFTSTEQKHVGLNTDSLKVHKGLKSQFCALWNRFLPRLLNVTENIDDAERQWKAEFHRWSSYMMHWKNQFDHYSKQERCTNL

Row | SMILES | pIC50
1 | C=Cc1cccc2c1N(CCCC)Cc1cc3c(cc1-2)OCO3 | 5.58
2 | CCCCN1Cc2cc3c(cc2-c2cccc(CC)c21)OCO3 | 5.26
3 | C=Cc1cccc2c1N(CCCCCC)Cc1cc3c(cc1-2)OCO3 | > 5.30
4 | CCCCCN1Cc2cc3c(cc2-c2cccc(CC)c21)OCO3 | > 5.30
5 | CCc1cccc2c1N(CC)Cc1cc3c(cc1-2)OCO3 | 5.05
6 | C=Cc1cccc2c1N(CCCCC)Cc1cc3c(cc1-2)OCO3 | > 5.30
7 | C=Cc1cccc2c1N(CCC)Cc1cc3c(cc1-2)OCO3 | 4.98
8 | CCCN1Cc2cc3c(cc2-c2cccc(CC)c21)OCO3 | 5.00
9 | CCCCCCN1Cc2cc3c(cc2-c2cccc(CC)c21)OCO3 | > 5.30
10 | C=Cc1cccc2c1N(C)Cc1cc3c(cc1-2)OCO3 | 5.54
11 | CCc1cccc2c1N(C)Cc1cc3c(cc1-2)OCO3 | 5.52
12 | C=Cc1cccc2c1N(CC)Cc1cc3c(cc1-2)OCO3 | 5.08
